Earlier results, collected in patent publication US12133844B2, “Methods of treating epithelioid cell tumors” (Abraxis BioScience, LLC, priority 2015, dated 2024).
Like-named read-outs stand apart in the source and are kept apart here. Blank lines part the entries; values can stand above or below the molecule they belong to.

Experiments:
mTORC1 [1] = target: T1, mTORC1 (Homo sapiens, UniProt P42345); parameters: endogenous in cells; host or cells: HUVEC
[2] = in vivo
HSA = HSA (Homo sapiens, UniProt P02768)
mTORC1 [3] = target: T1, mTORC1; parameters: endogenous in cells; conditions: HEK293 cells, 0.2 μM-5 μM
mTORC1 [4] = target: T1, mTORC1; parameters: endogenous in cells; host or cells: HUVEC; conditions: HUVEC cells, 10 nM-1 μM

Sequence of HSA (P02768 25-609): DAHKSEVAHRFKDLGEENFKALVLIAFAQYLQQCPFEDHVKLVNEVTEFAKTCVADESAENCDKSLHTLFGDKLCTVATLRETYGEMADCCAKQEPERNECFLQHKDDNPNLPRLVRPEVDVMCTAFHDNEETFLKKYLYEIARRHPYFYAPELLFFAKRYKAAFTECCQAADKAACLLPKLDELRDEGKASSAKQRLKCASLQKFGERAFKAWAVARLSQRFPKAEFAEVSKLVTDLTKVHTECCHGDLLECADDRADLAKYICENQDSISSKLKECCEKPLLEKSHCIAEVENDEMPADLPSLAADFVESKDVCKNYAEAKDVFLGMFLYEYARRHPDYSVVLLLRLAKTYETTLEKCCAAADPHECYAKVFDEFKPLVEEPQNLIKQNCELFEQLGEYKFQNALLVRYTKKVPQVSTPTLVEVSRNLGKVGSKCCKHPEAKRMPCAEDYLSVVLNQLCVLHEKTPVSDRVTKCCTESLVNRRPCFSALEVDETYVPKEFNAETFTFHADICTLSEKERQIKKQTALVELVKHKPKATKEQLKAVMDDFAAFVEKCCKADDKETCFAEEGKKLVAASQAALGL

Molecule: COc1ccc(-c2ccc3c(N4CCOCC4)nc(N4C[C@@H](C)O[C@@H](C)C4)nc3n2)cc1CO [KU-0063794]
inhibition of phosphorylation of mTORC1 at Ser2448 (mTORC1 [1]): dose-dependent and time-dependent

Molecule: COc1ccc(COc2cc3oc(=O)c4cc(C(C)O)ccc4c3cc2OC)cc1 (stereo not shown) [Palomid 529]
brain penetration [2]: good brain penetration
affinity for ABCB1/ABCG2 (ABCB1/ABCG2): lacks affinity

Molecule: CO[C@H]1C[C@@H]2CC[C@@H](C)[C@@](O)(O2)C(=O)C(=O)N2CCCC[C@H]2C(=O)O[C@H]([C@H](C)C[C@@H]2CC[C@@H](O)[C@H](OC)C2)CC(=O)[C@H](C)/C=C(\C)[C@@H](O)[C@@H](OC)C(=O)[C@H](C)C[C@H](C)/C=C/C=C/C=C/1C [Sirolimus, sirolimus]
binding to HSA (HSA): shown to bind HSA

More lines, now with the values ahead:

binding to human plasma proteins (human plasma proteins): shown to bind
Molecule: CC(=O)O[C@@]12CO[C@@H]1C[C@H](O)[C@@]1(C)C(=O)[C@H](O)C3=C(C)[C@@H](OC(=O)[C@H](O)[C@@H](NC(=O)OC(C)(C)C)c4ccccc4)C[C@@](O)([C@@H](OC(=O)c4ccccc4)[C@H]21)C3(C)C [docetaxel]

inhibition of mTORC1 (mTORC1 [3]): inhibits mTORC1
inhibition of mTORC1 (mTORC1 [4]): inhibits mTORC1
Molecule: WYE-354
